# Assay results reported in patent publication US8691811B2, “Quinazolinone linked pyrrolo[2,1-c][1,4]benzodiazepine hybrids as potential anticancer agents and process for the preparation thereof” (Council of Scientific & Industrial Research, priority 2008, dated 2014).
# Key:
# HOP-62 = test: Tata protocol cytotoxicity (SRB, 48 h), HOP-62; assay type: cell-based, human; settings: HOP-62, lung
# Procedure: (§1) The C8-linked quinazolinone-PBD hybrids (5b, 5c, 5k, 5l, 5m) have been tested against eleven human tumour cell lines derived from seven cancer types (lung cancer, colon cancer, cervix, ovarian cancer, oral cancer, prostate cancer and breast cancer) as per Tata protocol. For each compound, dose response curves for individual cell lines have been measured at a minimum of five concentrations at 10 fold dilutions. A protocol of 48 h continuous drug exposure has been used, and a sulforhodamine B (SRB) protein assay was used to estimate cell viability or growth. Compounds 5b, 5c, 5k, 5l, 5m have been evaluated for their in vitro cytotoxicity in eleven cell lines from seven human cancer types of lung (Hop-62, A-549) colon (COLO-205) cervix (Si-Ha), ovary (A-2780), prostate (PC3) breast (MCF7, Zr-75-1), oral (DWD, GURAV, KB). The results are expressed as percent of cell growth determined relative to that of untreated control cells (Table-4).
# A-549 = test: Tata protocol cytotoxicity (SRB, 48 h), A-549; assay type: cell-based, human
# Procedure: as §1
# DWD = test: Tata protocol cytotoxicity (SRB, 48 h), DWD; assay type: cell-based, human; settings: oral
# Procedure: as §1
# GURAV = test: Tata protocol cytotoxicity (SRB, 48 h), GURAV; assay type: cell-based, human; settings: oral
# Procedure: as §1
# KB = test: Tata protocol cytotoxicity (SRB, 48 h), KB; assay type: cell-based, human; settings: oral
# Procedure: as §1
# A-2780 = test: Tata protocol cytotoxicity (SRB, 48 h), A-2780; assay type: cell-based, human
# Procedure: as §1
# PC-3 = test: Tata protocol cytotoxicity (SRB, 48 h), PC-3; assay type: cell-based, human; settings: PC-3, prostate
# Procedure: as §1
# Si-Ha = test: Tata protocol cytotoxicity (SRB, 48 h), Si-Ha; assay type: cell-based, human; settings: cervix
# Procedure: as §1
# Colo-205 = test: Tata protocol cytotoxicity (SRB, 48 h), Colo-205; assay type: cell-based, human; settings: Colo-205, colon
# Procedure: as §1
# Zr-75-1 = test: Tata protocol cytotoxicity (SRB, 48 h), Zr-75-1; assay type: cell-based, human; settings: Zr-75-1, breast
# Procedure: as §1
# MCF7 = test: Tata protocol cytotoxicity (SRB, 48 h), MCF7; assay type: cell-based, human; settings: MCF7, breast
# Procedure: as §1
# [1] = system: duplex-form calf thymus DNA (CT-DNA); test: Thermal denaturation studies with calf thymus DNA; assay type: binding; settings: [PBD]:[DNA] molar ratio 1:5, CT-DNA 100 μM, ligand 20 μM, pH 7.00
# Procedure: Compounds have been subjected to thermal denaturation studies with duplex-form calf thymus DNA (CT-DNA) using a modification of a reported procedure. Working solutions in aqueous buffer ([…] NaH2PO4/Na2HPO4, 1 mM Na2EDTA, pH 7.00+0.01). containing CT-DNA (100 μm in phosphate) and the PBD (20 μm) have been prepared by addition of concentrated PBD solutions in DMSO to obtain a fixed [PBD]/[DNA] molar ratio of 1:5. The DNA-PBD solutions have been incubated at 37° C. for 0 and 18 hrs prior to analysis. Samples have been monitored at 260 nm using a Beckman DU-800 spectrophotometer fitted with high performance temperature controller, and heated at 1° C. min^−1 in the 40-110° C. range. DNA helix→coil transition temperatures (Tm) have been obtained from the maxima in the d(A260)/dT derivative plots. Drug-induced alterations in DNA melting behavior are given by: ΔTm=Tm(DNA+PBD)−Tm(DNA alone), where the Tm value for the PBD-free CT-DNA is 68.5±0.01.
# The DNA-binding for these novel C8-linked quinazolinone-PBD hybrids has been examined by thermal denaturation studies using calf thymus (CT) DNA. […] Data for 5b, 5c, 5d, and 5k, 5l, 5m and DC-81 are included in Table 5 for comparison.
# [2] = system: eleven human tumour cell lines; test: Tata protocol in vitro cytotoxicity (SRB, 48 h), all cell lines; assay type: cell-based; settings: bound over all eleven cell lines, read-out: GI50 value against eleven cell lines in seven cell panels
# Procedure: as §1
# [3] = system: lung cancer cell lines (Hop-62, A-549); test: Tata protocol cytotoxicity (SRB, 48 h), lung panel; assay type: cell-based; settings: Homo sapiens; range over the panel; exposure period of at least 48 hrs; read-out: GI50, in vitro activity against lung
# Procedure: as §1
# [4] = system: colon cancer cell line (COLO-205); test: Tata protocol cytotoxicity (SRB, 48 h), colon panel; assay type: cell-based; settings: Homo sapiens, exposure period of at least 48 hrs, read-out: GI50, in vitro activity against colon
# Procedure: as §1
# [5] = system: ovarian cancer cell line (A-2780); test: Tata protocol cytotoxicity (SRB, 48 h), ovarian panel; assay type: cell-based; settings: Homo sapiens, A2780; exposure period of at least 48 hrs; read-out: GI50, in vitro activity against ovarian
# Procedure: as §1
# [6] = system: prostate cancer cell line (PC3); test: Tata protocol cytotoxicity (SRB, 48 h), prostate panel; assay type: cell-based; settings: Homo sapiens; exposure period of at least 48 hrs; read-out: GI50, in vitro activity against prostate
# Procedure: as §1
# [7] = system: breast cancer cell lines (MCF7, Zr-75-1); test: Tata protocol cytotoxicity (SRB, 48 h), breast panel; assay type: cell-based; settings: Homo sapiens; range over the panel; exposure period of at least 48 hrs; read-out: IC50, in vitro activity against breast
# Procedure: as §1
Compound,GI50 (HOP-62) [nM],"GI50 (A-549; A-549, lung) [nM]",GI50 (DWD) [nM],GI50 (GURAV) [nM],GI50 (KB) [nM],"GI50 (A-2780; A-2780, ovary) [nM]",GI50 (PC-3) [nM],GI50 (Si-Ha) [nM],GI50 (Colo-205) [nM],GI50 (Zr-75-1) [nM],GI50 (MCF7) [nM],ΔTm after incubation at 37° C. for 0 h [1] [°C],ΔTm after incubation at 37° C. for 18 h [1] [°C],other results
"COc1cc2c(cc1OCCCCOc1ccc(-n3c(C)nc4ccccc4c3=O)cc1)N=C[C@@H]1CCCN1C2=O [5c, 7-methoxy-8{-4-[4-(2-methyl-4-oxo-3,4-dihydro-3-quinazolinyl)phenoxy]butoxy-}-(11aS)-1,2,3,11a-tetrahydro-5H-pyrrolo[2,1-c][1,4]benzodiazepine-5-one]",1950,1930,1600,1950,1980,160,170,1910,1810,1970,2300,1.0,2.1,–
"COc1cc2c(cc1OCCCCOc1ccc(-n3c(/C=C/c4ccccc4)nc4ccccc4c3=O)cc1)N=C[C@@H]1CCCN1C2=O [5l, 7-methoxy-8-{4-[(4-4-oxo-2-[(E)-2-phenyl-1-ethenyl]-3,4-dihydro-3-quinazolinylphenyl)oxy]butoxy}-(11aS)-1,2,3,11a-tetrahydro-5H-pyrrolo[2,1-c][1,4]benzodiazepine-5-one]",2330,2390,160,1930,2070,160,1910,2190,2230,2440,–,1.2,2.3,–
"COc1cc2c(cc1OCCCOc1ccc(-n3c(C)nc4ccccc4c3=O)cc1)N=C[C@@H]1CCCN1C2=O [5b, 7-methoxy-8{-3-[4-(2-methyl-4-oxo-3,4-dihydro-3-quinazolinyl)phenoxy]propoxy}-(11aS)-1,2,3,11a-tetrahydro-5H-pyrrolo[2,1-c][1,4]benzodiazepine-5-one]",–,–,–,–,–,–,–,–,–,–,–,1.0,2.0,"GI50 [2]: < 1830 nM; GI50 (HOP-62; Homo sapiens): 160 nM; GI50 (A-549; Homo sapiens, A549, A-549, lung): 1480 nM; GI50 (DWD; Homo sapiens): 110 nM; GI50 (GURAV; Homo sapiens): 130 nM; GI50 (KB; Homo sapiens): 150 nM; GI50 (A-2780; Homo sapiens, A2780, A-2780, ovary): 100 nM; GI50 (PC-3; Homo sapiens): 130 nM; GI50 (Si-Ha; Homo sapiens, SiHa): 160 nM; GI50 (Colo-205; Homo sapiens): 140 nM; GI50 (Zr-75-1; Homo sapiens): 160 nM; GI50 (MCF7; Homo sapiens): 1830 nM; GI50 [3]: 160 to 1480 nM; GI50 [4]: 140 nM; GI50 [5]: 100 nM; GI50 [6]: 130 nM; IC50 [7]: 160 to 1830 nM"
"COc1cc2c(cc1OCCCOc1ccc(-n3c(/C=C/c4ccccc4)nc4ccccc4c3=O)cc1)N=C[C@@H]1CCCN1C2=O [5k, 7-methoxy-8-{3-[(4-4-oxo-2-[(E)-2-phenyl-1-ethenyl]-3,4-dihydro-3-quinazolinylphenyl)oxy]propoxy}-(11aS)-1,2,3,11a-tetrahydro-5H-pyrrolo[2,1-c][1,4]benzodiazepine-5-one]",2150,1880,140,1850,1780,140,160,2000,2120,170,2030,1.0,2.0,–
"COc1cc2c(cc1O)N=CC1CCCN1C2=O (stereo not drawn) [DC-81, reference compound]",–,–,–,–,–,–,–,–,–,–,–,0.3,0.7,–
"COc1cc2c(cc1OCCCCCOc1ccc(-n3c(/C=C/c4ccccc4)nc4ccccc4c3=O)cc1)N=C[C@@H]1CCCN1C2=O [5m, 7-methoxy-8-{5-[(4-4-oxo-2-[(E)-2-phenyl-1-ethenyl]-3,4-dihydro-3-quinazolinylphenyl)oxy]pentyloxy}-(11aS)-1,2,3,11a-tetrahydro-5H-pyrrolo[2,1-c][1,4]benzodiazepine-5-one]",2310,2620,170,1820,2150,150,1830,2080,2000,2090,2500,1.1,2.1,–
